Results: the NIST ThermoML archive (doi:10.1016/j.fluid.2005.06.010)

Assay: xn = mol fraction of the nth substance listed
Conditions: Fluid (supercritical or subcritical phases), Vibrating tube method

c1ccc2ccccc2c1 [naphthalene] + O=C=O
Conditions	mass density [kg/m3]
313.11 K, 8747 kPa, x1 = 0.0049	531.42
313.11 K, 8855 kPa, x1 = 0.0049	556.55
313.11 K, 8983 kPa, x1 = 0.0093	627.46
313.11 K, 9034 kPa, x1 = 0.0093	633.13
313.11 K, 9048 kPa, x1 = 0.0049	590.85
313.11 K, 9499 kPa, x1 = 0.0049	639
313.11 K, 9997 kPa, x1 = 0.0049	670.97
313.11 K, 10053 kPa, x1 = 0.0093	697.27
313.11 K, 11012 kPa, x1 = 0.0049	712.47
313.11 K, 11036 kPa, x1 = 0.0093	731.61
313.11 K, 11998 kPa, x1 = 0.0093	755.87
313.11 K, 12044 kPa, x1 = 0.0049	741.27
313.11 K, 12486 kPa, x1 = 0.0173	783.64
313.11 K, 12995 kPa, x1 = 0.0049	761.49
313.11 K, 13003 kPa, x1 = 0.0093	775.73
313.11 K, 13034 kPa, x1 = 0.0173	790.35
313.11 K, 14017 kPa, x1 = 0.0049	779.61
313.11 K, 14028 kPa, x1 = 0.0093	792.52
313.11 K, 14045 kPa, x1 = 0.0173	805.22
313.11 K, 14979 kPa, x1 = 0.0049	794.2
313.11 K, 14995 kPa, x1 = 0.0093	806.12
313.11 K, 15031 kPa, x1 = 0.0173	818.06
313.11 K, 16007 kPa, x1 = 0.0093	818.64
313.11 K, 16029 kPa, x1 = 0.0049	808.12
313.11 K, 16046 kPa, x1 = 0.0173	829.54
313.11 K, 16999 kPa, x1 = 0.0049	819.57
313.11 K, 17003 kPa, x1 = 0.0093	829.62
313.11 K, 17015 kPa, x1 = 0.0173	839.94
313.11 K, 18017 kPa, x1 = 0.0173	849.35
313.11 K, 18019 kPa, x1 = 0.0093	839.78
313.11 K, 18053 kPa, x1 = 0.0049	830.86
313.11 K, 19023 kPa, x1 = 0.0049	840.37
313.11 K, 19029 kPa, x1 = 0.0093	849.05
313.11 K, 19030 kPa, x1 = 0.0173	858.05
313.11 K, 19995 kPa, x1 = 0.0093	857.27
313.11 K, 20008 kPa, x1 = 0.0049	849.27
313.11 K, 20013 kPa, x1 = 0.0173	865.93
313.11 K, 20987 kPa, x1 = 0.0049	857.52
313.11 K, 20997 kPa, x1 = 0.0093	865.26
313.11 K, 21031 kPa, x1 = 0.0173	873.48
313.11 K, 21996 kPa, x1 = 0.0049	865.5
313.11 K, 22000 kPa, x1 = 0.0093	872.7
313.11 K, 22008 kPa, x1 = 0.0173	880.38
313.11 K, 22977 kPa, x1 = 0.0049	872.82
313.11 K, 22989 kPa, x1 = 0.0173	886.86
313.11 K, 22998 kPa, x1 = 0.0093	879.67
313.11 K, 24021 kPa, x1 = 0.0093	886.44
313.11 K, 24036 kPa, x1 = 0.0173	893.38
313.11 K, 24043 kPa, x1 = 0.0049	880.36
313.11 K, 24684 kPa, x1 = 0.0173	897.25
313.11 K, 24941 kPa, x1 = 0.0093	892.28
313.13 K, 10564 kPa, x1 = 0.0144	726.54
313.13 K, 10994 kPa, x1 = 0.0144	737.45
313.13 K, 12022 kPa, x1 = 0.0144	761.26
313.13 K, 13026 kPa, x1 = 0.0144	779.83
313.13 K, 13996 kPa, x1 = 0.0144	794.9
313.13 K, 15027 kPa, x1 = 0.0144	808.74
313.13 K, 16009 kPa, x1 = 0.0144	820.49
313.13 K, 16978 kPa, x1 = 0.0144	831.02
313.13 K, 17970 kPa, x1 = 0.0144	840.48
313.13 K, 19038 kPa, x1 = 0.0144	850.11
313.13 K, 20010 kPa, x1 = 0.0144	858.26
313.13 K, 21047 kPa, x1 = 0.0144	866.4
313.13 K, 22028 kPa, x1 = 0.0144	873.6
313.13 K, 23018 kPa, x1 = 0.0144	880.48
313.13 K, 24032 kPa, x1 = 0.0144	887.14
313.13 K, 25059 kPa, x1 = 0.0144	893.55
318.03 K, 13470 kPa, x1 = 0.0198	763.8
318.03 K, 13587 kPa, x1 = 0.0198	765.92
318.03 K, 13765 kPa, x1 = 0.0198	769.11
318.03 K, 13870 kPa, x1 = 0.0198	770.92
318.03 K, 13982 kPa, x1 = 0.0198	772.89
318.03 K, 14098 kPa, x1 = 0.0198	774.83
318.03 K, 14247 kPa, x1 = 0.0198	777.23
318.03 K, 14369 kPa, x1 = 0.0198	779.18
318.03 K, 14487 kPa, x1 = 0.0198	781.08
318.03 K, 14571 kPa, x1 = 0.0198	782.37
318.03 K, 14668 kPa, x1 = 0.0198	783.91
318.03 K, 14765 kPa, x1 = 0.0198	785.29
318.03 K, 14877 kPa, x1 = 0.0198	787
318.03 K, 14970 kPa, x1 = 0.0198	788.42
318.03 K, 15080 kPa, x1 = 0.0198	789.97
318.03 K, 15304 kPa, x1 = 0.0198	793.1
318.03 K, 15487 kPa, x1 = 0.0198	795.62
318.03 K, 16010 kPa, x1 = 0.0198	802.31
318.03 K, 16995 kPa, x1 = 0.0198	813.73
318.03 K, 17979 kPa, x1 = 0.0198	824.06
318.03 K, 18989 kPa, x1 = 0.0198	833.74
318.03 K, 20016 kPa, x1 = 0.0198	842.78
318.03 K, 20955 kPa, x1 = 0.0198	850.43
318.03 K, 21951 kPa, x1 = 0.0198	858.04
318.03 K, 22703 kPa, x1 = 0.0198	863.41
318.07 K, 18008 kPa, x1 = 0.0235	829.61
318.07 K, 18511 kPa, x1 = 0.0235	834.41
318.07 K, 19022 kPa, x1 = 0.0235	839.2
318.07 K, 19528 kPa, x1 = 0.0235	843.76
318.07 K, 20035 kPa, x1 = 0.0235	848.15
318.07 K, 20519 kPa, x1 = 0.0235	852.18
318.07 K, 21009 kPa, x1 = 0.0235	856.16
318.07 K, 22034 kPa, x1 = 0.0235	864
318.07 K, 23008 kPa, x1 = 0.0235	870.96
318.07 K, 23971 kPa, x1 = 0.0235	877.49
318.07 K, 24665 kPa, x1 = 0.0235	882.02
318.08 K, 12165 kPa, x1 = 0.0144	719.15
318.08 K, 12357 kPa, x1 = 0.0144	724.21
318.08 K, 12493 kPa, x1 = 0.0144	727.5
318.08 K, 13016 kPa, x1 = 0.0144	739.71
318.08 K, 13476 kPa, x1 = 0.0144	749.33
318.08 K, 14019 kPa, x1 = 0.0144	759.61
318.08 K, 14983 kPa, x1 = 0.0144	775.77
318.08 K, 14983 kPa, x1 = 0.0173	784.34
318.08 K, 15997 kPa, x1 = 0.0144	790.28
318.08 K, 16066 kPa, x1 = 0.0173	799.24
318.08 K, 16997 kPa, x1 = 0.0144	803.04
318.08 K, 16997 kPa, x1 = 0.0173	810.5
318.08 K, 17981 kPa, x1 = 0.0144	814.33
318.08 K, 18010 kPa, x1 = 0.0173	821.53
318.08 K, 18981 kPa, x1 = 0.0144	824.7
318.08 K, 19014 kPa, x1 = 0.0173	831.51
318.08 K, 20037 kPa, x1 = 0.0173	840.84
318.08 K, 20042 kPa, x1 = 0.0144	834.82
318.08 K, 20902 kPa, x1 = 0.0144	842.42
318.08 K, 20967 kPa, x1 = 0.0173	848.79
318.08 K, 21935 kPa, x1 = 0.0144	850.92
318.08 K, 22018 kPa, x1 = 0.0173	857.06
318.08 K, 22960 kPa, x1 = 0.0144	858.89
318.08 K, 22995 kPa, x1 = 0.0173	864.32
318.08 K, 23932 kPa, x1 = 0.0144	865.94
318.08 K, 23962 kPa, x1 = 0.0173	871.14
318.08 K, 24764 kPa, x1 = 0.0173	876.56
318.08 K, 24829 kPa, x1 = 0.0144	872.11
318.11 K, 9524 kPa, x1 = 0.0065	513.41
318.11 K, 9601 kPa, x1 = 0.0049	505.2
318.11 K, 9622 kPa, x1 = 0.0065	527.97
318.11 K, 9697 kPa, x1 = 0.0049	521.21
318.11 K, 9722 kPa, x1 = 0.0065	543.81
318.11 K, 9775 kPa, x1 = 0.0049	532.95
318.11 K, 9801 kPa, x1 = 0.0065	554.22
318.11 K, 9898 kPa, x1 = 0.0065	566.44
318.11 K, 9974 kPa, x1 = 0.0049	559.06
318.11 K, 9975 kPa, x1 = 0.0065	575.84
318.11 K, 10075 kPa, x1 = 0.0065	586.3
318.11 K, 10181 kPa, x1 = 0.0065	596.66
318.11 K, 10293 kPa, x1 = 0.0065	606.9
318.11 K, 10405 kPa, x1 = 0.0065	616.37
318.11 K, 10523 kPa, x1 = 0.0049	610.25
318.11 K, 10629 kPa, x1 = 0.0065	632.61
318.11 K, 10763 kPa, x1 = 0.0093	652.77
318.11 K, 10830 kPa, x1 = 0.0065	645.51
318.11 K, 10978 kPa, x1 = 0.0093	663.58
318.11 K, 10980 kPa, x1 = 0.0049	639.71
318.11 K, 11049 kPa, x1 = 0.0065	657.73
318.11 K, 11516 kPa, x1 = 0.0065	679.19
318.11 K, 11989 kPa, x1 = 0.0093	702.27
318.11 K, 12007 kPa, x1 = 0.0049	684.72
318.11 K, 12072 kPa, x1 = 0.0065	699.49
318.11 K, 12537 kPa, x1 = 0.0065	713.68
318.11 K, 12998 kPa, x1 = 0.0093	729.76
318.11 K, 13017 kPa, x1 = 0.0065	726.51
318.11 K, 13024 kPa, x1 = 0.0049	715.37
318.11 K, 13986 kPa, x1 = 0.0049	737.86
318.11 K, 14066 kPa, x1 = 0.0093	752.41
318.11 K, 14069 kPa, x1 = 0.0065	749.53
318.11 K, 14967 kPa, x1 = 0.0093	768.35
318.11 K, 14970 kPa, x1 = 0.0049	756.77
318.11 K, 15010 kPa, x1 = 0.0065	766.43
318.11 K, 15879 kPa, x1 = 0.0065	779.94
318.11 K, 15977 kPa, x1 = 0.0049	773.28
